According to patent publication US20130217678A1, “PHARMACEUTICAL AGENT COMPRISING QUINOLONE COMPOUND” (OTSUKA PHARMACEUTICAL CO., LTD., priority 2008, published 2013):

Row | melting point | Compound
1 | 229 to 231 °C | COc1ccc(-c2c[nH]c3c(-c4cc5ccccc5s4)ccc(C)c3c2=O)cc1 [Example 98, 8-Benzo[b]thiophen-2-yl-3-(4-methoxyphenyl)-5-methyl-1H-quinolin-4-one]
2 | 218 to 220 °C | CCCOc1cccc2c(=O)c(-c3ccccc3OC)c[nH]c12 [Example 39, 3-(2-Methoxyphenyl)-8-propoxy-1H-quinolin-4-one]
3 | 161 to 162 °C | CCCOc1cc(C)cc2c(=O)c(-c3ccc(OC)cc3)c[nH]c12 [Example 36, 3-(4-Methoxyphenyl)-6-methyl-8-propoxy-1H-quinolin-4-one]
4 | 258 to 260 °C | CCc1nccn1-c1ccc(C)c2c(=O)c(-c3ccc(OC)cc3)c[nH]c12 [Example 71, 8-(2-Ethylimidazol-1-yl)-3-(4-methoxyphenyl)-5-methyl-1H-quinolin-4-one]
5 | 213 to 215 °C | COc1ccc(-c2c[nH]c3c(OC4CCCC4)ccc(OC)c3c2=O)cc1 [Example 93, 8-Cyclopentyloxy-5-methoxy-3-(4-methoxyphenyl)-1H-quinolin-4-one]
6 | 249 to 250 °C | COc1ccc(-c2c[nH]c3c(N4CCCCCC4)ccc(C)c3c2=O)cc1 [Example 84, 8-Azepan-1-yl-3-(4-methoxyphenyl)-5-methyl-1H-quinolin-4-one]
7 | 193 to 195 °C | COc1ccc(-c2c[nH]c3c(C(=O)N4CCCC4)ccc(C)c3c2=O)cc1 [Example 90, 3-(4-Methoxyphenyl)-5-methyl-8-(pyrrolidine-1-carbonyl)-1H-quinolin-4-one]
8 | 145 to 147 °C | CCCOc1ccc(Cl)c2[nH]cc(-c3ccc(OC)cc3)c(=O)c12 [Example 81, 8-Chloro-3-(4-methoxyphenyl)-5-propoxy-1H-quinolin-4-one]
9 | 198 to 199 °C | COc1ccc(-c2c[nH]c3c(OCC4CC4)ccc(C)c3c2=O)c(F)c1 [Example 79, 8-Cyclopropylmethoxy-3-(2-fluoro-4-methoxyphenyl)-5-methyl-1H-quinolin-4-one]
10 | 270 to 275 °C (dec.) | Cc1ccc(O)c2[nH]cc(-c3ccc(O)cc3)c(=O)c12 [Example 75, 8-Hydroxy-3-(4-hydroxyphenyl)-5-methyl-1H-quinolin-4-one]
11 | 186 to 188 °C | CCCCc1ccc(C)c2c(=O)c(-c3ccc(OC)cc3)c[nH]c12 [Example 76, 8-Butyl-3-(4-methoxyphenyl)-5-methyl-1H-quinolin-4-one]
12 | 154 to 155 °C | O=c1c(-c2ccc(Cl)cc2Cl)c[nH]c2c(OC3CCCC3)ccc(O)c12 [Example 106, 8-Cyclopentyloxy-3-(2,4-dichlorophenyl)-5-hydroxy-1H-quinolin-4-one]
13 | 107 to 108 °C | CCCOc1cccc2c(=O)c(-c3cccc(Br)c3)c[nH]c12 [Example 55, 3-(3-Bromophenyl)-8-propoxy-1H-quinolin-4-one]
14 | 158 to 160 °C | COc1ccc(-c2c[nH]c3c(C(=O)N(C)C)ccc(C)c3c2=O)cc1 [Example 89, 3-(4-Methoxyphenyl)-5-methyl-4-oxo-1,4-dihydroquinolin-8-carboxylic acid dimethylamide]
15 | 189 to 190 °C | COc1ccc(-c2c[nH]c3c(-c4ccsc4)ccc(C)c3c2=O)cc1 [Example 97, 3-(4-Methoxyphenyl)-5-methyl-8-thiophen-3-yl-1H-quinolin-4-one]
16 | 232 to 234 °C | CCOc1ccc(OCC)c2c(=O)c(-c3ccc(F)cc3)c[nH]c12 [Example 94, 5,8-Diethoxy-3-(4-fluorophenyl)-1H-quinolin-4-one]

Row | melting point | Compound
17 | 189 to 193 °C | CCCOc1cccc2c(=O)c(-c3cccc(-c4ccc(C)cc4)c3)c[nH]c12 [Example 59, 3-(4′-Methylbiphenyl-3-yl)-8-propoxy-1H-quinolin-4-one]
18 | 197 to 199 °C | COc1ccc(-c2c[nH]c3c(-c4cccs4)ccc(C)c3c2=O)cc1 [Example 100, 3-(4-Methoxyphenyl)-5-methyl-8-thiophen-2-yl-1H-quinolin-4-one]
19 | 103 to 106 °C | CCCOc1ccc(C)c2c(=O)c(-c3ccc(Cl)cc3Cl)c[nH]c12 [Example 57, 3-(2,4-Dichlorophenyl)-5-methyl-8-propoxy-1H-quinolin-4-one]
20 | 259 to 260 °C | CCCOc1cccc2c(=O)c(-c3ccncc3)c[nH]c12 [Example 15, 8-Propoxy-3-pylidine-4-yl-1H-quinolin-4-one]
21 | 254 to 256 °C | COc1ccc(OCC2CC2)c2[nH]cc(-c3ccc(Cl)cc3Cl)c(=O)c12 [Example 105, 8-Cyclopropylmethoxy-3-(2,4-dichlorophenyl)-5-methoxy-1H-quinolin-4-one]
22 | 214 to 215 °C | CCCOc1cccc2c(=O)c(-c3ccc(OC)cc3C)c[nH]c12 [Example 19, 3-(4-Methoxy-2-methylphenyl)-8-propoxy-1H-quinolin-4-one]
23 | 117 to 119 °C | CCOc1ccc(OC)c2c(=O)c(-c3ccc(OC)cc3)c[nH]c12 [Example 45, 8-Ethoxy-5-methoxy-3-(4-methoxyphenyl)-1H-quinolin-4-one]
24 | 169 to 170 °C | CCCOc1ccc(CC)c2c(=O)c(-c3ccc(OC)cc3)c[nH]c12 [Example 49, 5-Ethyl-3-(4-methoxyphenyl)-8-propoxy-1H-quinolin-4-one]
25 | 231 to 232 °C | CCCOc1cccc2c(=O)c(-c3ccc(OC)cc3OC)c[nH]c12 [Example 16, 3-(2,4-Dimethoxyphenyl)-8-propoxy-1H-quinolin-4-one]
26 | 186 to 187 °C | COc1ccc(-c2c[nH]c3c(N(C)C(C)C)ccc(C)c3c2=O)cc1 [Example 103, 8-(N-Isopropyl-N-methylamino)-3-(4-methoxyphenyl)-5-methyl-1H-quinolin-4-one]
27 | 111 to 113 °C | COc1ccc(-c2c[nH]c3c(N(C)CC(C)C)ccc(C)c3c2=O)cc1 [Example 102, 8-(N-Isobutyl-N-methyl-amino)-3-(4-methoxyphenyl)-5-methyl-1H-quinolin-4-one]
28 | 210 to 211 °C | CCCOc1cccc2c(=O)c(-c3ccc(OC)c(OC)c3)c[nH]c12 [Example 14, 3-(3,4-Dimethoxyphenyl)-8-propoxy-1H-quinolin-4-one]
29 | 266 to 268 °C | COc1ccc(OC2CCCC2)c2[nH]cc(-c3ccc(Cl)cc3Cl)c(=O)c12 [Example 104, 8-Cyclopentyloxy-3-(2,4-dichlorophenyl)-5-methoxy-1H-quinolin-4-one]
30 | 221 to 223 °C | CCCOc1ccc(C)c2c(=O)c(-c3ccccc3OC)c[nH]c12 [Example 52, 3-(2-Methoxyphenyl)-5-methyl-8-propoxy-1H-quinolin-4-one]
31 | 236 to 237 °C | CCCOc1cc(-n2ccnc2)cc2c(=O)c(-c3ccc(OC)cc3)c[nH]c12 [Example 85, 6-Imidazol-1-yl-3-(4-methoxyphenyl)-8-propoxy-1H-quinolin-4-one]
32 | 186 to 187 °C | COc1ccc(-c2c[nH]c3c(N(C)C4CCCCC4)ccc(C)c3c2=O)cc1 [Example 99, 8-(N-Cyclohexyl-N-methylamino)-3-(4-methoxyphenyl)-5-methyl-1H-quinolin-4-one]

Row | Compound | melting point
33 | COc1ccc(-c2c[nH]c3c(OCC(C)C)ccc(OC)c3c2=O)cc1 [Example 47, 8-Isobutoxy-5-methoxy-3-(4-methoxyphenyl)-1H-quinolin-4-one] | 242 to 244 °C
